According to the supplement of paper PMC6045584:
± gives the standard deviation of the averaged measurements.

Key:
BLEOMYCIN = compound: Cc1c(N)nc([C@H](CC(N)=O)NC[C@H](N)C(N)=O)nc1C(=O)N[C@H](C(=O)N[C@H](C)[C@@H](O)[C@H](C)C(=O)N[C@H](C(=O)NCCc1nc(-c2nc(C(=O)NCCC[S+](C)C)cs2)cs1)[C@@H](C)O)[C@@H](OC1OC(CO)C(O)C(O)C1OC1OC(CO)C(O)C(OC(N)=O)C1O)c1cnc[nH]1 [BLEOMYCIN]; experiment: surviving fraction relative to DMSO-only wells; higher = less growth inhibition; conditions: exposure time: 5 days
Outline: (§1)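 Log-phase tumour cells were seeded at 250–500 per well in 384-well plates and, from 24 hours after seeding, exposed continuously for five days to inhibitors at 0.5, 1, 5, 10, 50, 100, 500 and 1000 nM. Surviving fraction is CellTiter-Glo luminescence normalised to the median of DMSO-only wells. Luminescence was measured after 10 minutes at room temperature, and only lines screened three times with replicate Pearson r >0.7 and median Z' >0.3 were kept.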

BMN-673 = compound: Cn1ncnc1[C@H]1c2n[nH]c(=O)c3cc(F)cc(c23)N[C@@H]1c1ccc(F)cc1 [BMN-673]; experiment: as above; conditions: exposure time: 5 days
Outline: as §1

| Test System | surviving fraction (BLEOMYCIN; 0.5 nM) | surviving fraction (BLEOMYCIN; 1 nM) | surviving fraction (BLEOMYCIN; 5 nM) | surviving fraction (BLEOMYCIN; 10 nM) | surviving fraction (BLEOMYCIN; 50 nM) | surviving fraction (BLEOMYCIN; 100 nM) | surviving fraction (BLEOMYCIN; 500 nM) | surviving fraction (BLEOMYCIN; 1000 nM) | surviving fraction (BMN-673; 0.5 nM) | surviving fraction (BMN-673; 1 nM) | surviving fraction (BMN-673; 5 nM) | surviving fraction (BMN-673; 10 nM) | surviving fraction (BMN-673; 50 nM) | surviving fraction (BMN-673; 100 nM) | surviving fraction (BMN-673; 500 nM) | surviving fraction (BMN-673; 1000 nM) |
| --- | --- | --- | --- | --- | --- | --- | --- | --- | --- | --- | --- | --- | --- | --- | --- | --- |
| MDAMB361 BREAST | 0.78 ± 0.07 | 0.761 ± 0.13 | 0.698 ± 0.03 | 0.819 ± 0.067 | 0.843 ± 0.016 | 0.882 ± 0.046 | 0.838 ± 0.047 | 0.865 ± 0.14 | 0.804 ± 0.064 | 0.806 ± 0.018 | 0.829 ± 0.013 | 0.82 ± 0.041 | 0.856 ± 0.026 | 0.798 ± 0.07 | 0.782 ± 0.038 | 0.764 ± 0.062 |
| MDAMB436 BREAST | 0.799 ± 0.027 | 0.825 ± 0.031 | 0.834 ± 0.024 | 0.791 ± 0.033 | 0.773 ± 0.031 | 0.814 ± 0.06 | 0.598 ± 0.056 | 0.506 ± 0.073 | 0.734 ± 0.039 | 0.66 ± 0.056 | 0.481 ± 0.023 | 0.434 ± 0.031 | 0.413 ± 0.032 | 0.369 ± 0.026 | 0.349 ± 0.032 | 0.332 ± 0.02 |
| MDAMB453 BREAST | 1.06 ± 0.051 | 1.03 ± 0.011 | 1.05 ± 0.045 | 1.09 ± 0.064 | 1.067 ± 0.009 | 1.14 ± 0.052 | 0.851 ± 0.061 | 0.711 ± 0.024 | 1.1 ± 0.11 | 1.03 ± 0.054 | 1.12 ± 0.13 | 0.881 ± 0.057 | 0.724 ± 0.056 | 0.57 ± 0.029 | 0.454 ± 0.019 | 0.495 ± 0.044 |
| MDAMB468 BREAST | 0.804 ± 0.036 | 0.863 ± 0.058 | 0.912 ± 0.044 | 0.932 ± 0.039 | 1.09 ± 0.027 | 0.989 ± 0.049 | 0.768 ± 0.035 | 0.577 ± 0.026 | 0.993 ± 0.083 | 0.914 ± 0.024 | 0.824 ± 0.1 | 0.728 ± 0.12 | 0.578 ± 0.039 | 0.451 ± 0.053 | 0.305 ± 0.033 | 0.243 ± 0.013 |
| MFM223 BREAST | 0.719 ± 0.028 | 0.784 ± 0.13 | 0.702 ± 0.076 | 0.703 ± 0.032 | 0.961 ± 0.049 | 0.923 ± 0.0095 | 0.789 ± 0.047 | 0.681 ± 0.047 | 1.25 ± 0.069 | 1.2 ± 0.073 | 1.07 ± 0.25 | 0.9232 ± 0.0025 | 0.805 ± 0.015 | 0.755 ± 0.047 | 0.734 ± 0.027 | 0.713 ± 0.072 |
| MG63 BONE | 0.861 ± 0.018 | 0.876 ± 0.018 | 0.864 ± 0.025 | 0.829 ± 0.018 | 0.831 ± 0.02 | 0.64 ± 0.075 | 0.22 ± 0.035 | 0.132 ± 0.0027 | 1.03 ± 0.023 | 0.988 ± 0.026 | 0.989 ± 0.028 | 0.917 ± 0.017 | 0.646 ± 0.014 | 0.432 ± 0.039 | 0.285 ± 0.0053 | 0.193 ± 0.029 |
| MHM BONE | 0.966 ± 0.034 | 0.975 ± 0.015 | 1.01 ± 0.03 | 0.985 ± 0.019 | 0.999 ± 0.014 | 0.921 ± 0.016 | 0.718 ± 0.013 | 0.665 ± 0.0046 | 1.03 ± 0.047 | 1 ± 0.035 | 1.01 ± 0.048 | 1.01 ± 0.051 | 0.997 ± 0.041 | 0.981 ± 0.0079 | 0.868 ± 0.017 | 0.782 ± 0.012 |
| NCIH441 LUNG | 0.956 ± 0.093 | 1.01 ± 0.05 | 0.919 ± 0.045 | 0.887 ± 0.063 | 0.838 ± 0.066 | 0.857 ± 0.015 | 0.762 ± 0.017 | 0.52 ± 0.028 | 1.11 ± 0.035 | 1.11 ± 0.081 | 1.01 ± 0.039 | 0.872 ± 0.037 | 0.78 ± 0.13 | 0.723 ± 0.1 | 0.584 ± 0.082 | 0.499 ± 0.083 |
| NOS1 BONE | 0.877 ± 0.087 | 0.841 ± 0.063 | 0.795 ± 0.04 | 0.782 ± 0.14 | 1.02 ± 0.33 | 0.863 ± 0.038 | 0.557 ± 0.046 | 0.656 ± 0.25 | 1.1 ± 0.058 | 0.953 ± 0.093 | 0.683 ± 0.026 | 0.66 ± 0.066 | 0.633 ± 0.085 | 0.564 ± 0.051 | 0.551 ± 0.042 | 0.552 ± 0.026 |
| NY BONE | 0.9287 ± 0.0064 | 0.925 ± 0.054 | 0.938 ± 0.028 | 0.911 ± 0.026 | 0.793 ± 0.035 | 0.589 ± 0.044 | 0.238 ± 0.0045 | 0.161 ± 0.012 | 1.019 ± 0.0087 | 1.01 ± 0.025 | 1.01 ± 0.037 | 0.934 ± 0.056 | 0.928 ± 0.047 | 0.879 ± 0.033 | 0.501 ± 0.011 | 0.257 ± 0.014 |
| OS25HAL BONE | 0.885 ± 0.027 | 0.8967 ± 0.0078 | 0.924 ± 0.026 | 0.894 ± 0.027 | 0.936 ± 0.011 | 0.895 ± 0.058 | 0.511 ± 0.048 | 0.286 ± 0.004 | 1.1 ± 0.034 | 1.01 ± 0.037 | 0.96 ± 0.063 | 0.994 ± 0.017 | 0.91 ± 0.06 | 0.812 ± 0.014 | 0.327 ± 0.02 | 0.178 ± 0.021 |
| OSHN BONE | 0.9207 ± 0.0087 | 0.916 ± 0.012 | 0.916 ± 0.007 | 0.903 ± 0.024 | 0.925 ± 0.0044 | 0.856 ± 0.07 | 0.29 ± 0.039 | 0.132 ± 0.03 | 1.08 ± 0.024 | 1.04 ± 0.016 | 0.996 ± 0.023 | 0.9107 ± 0.004 | 0.742 ± 0.011 | 0.573 ± 0.081 | 0.197 ± 0.012 | 0.145 ± 0.009 |
| PCI30 HEADNECK | 0.917 ± 0.054 | 0.887 ± 0.054 | 0.942 ± 0.064 | 0.958 ± 0.04 | 0.655 ± 0.075 | 0.509 ± 0.048 | 0.32 ± 0.044 | 0.334 ± 0.033 | 1.01 ± 0.071 | 1.04 ± 0.092 | 0.91 ± 0.063 | 0.737 ± 0.056 | 0.585 ± 0.025 | 0.495 ± 0.0052 | 1.04 ± 0.025 | 1.08 ± 0.069 |
| RDES SOFT TISSUE | 0.743 ± 0.081 | 0.794 ± 0.28 | 0.732 ± 0.089 | 0.783 ± 0.096 | 0.985 ± 0.27 | 0.915 ± 0.09 | 0.947 ± 0.19 | 0.582 ± 0.2 | 1.16 ± 0.1 | 1.38 ± 0.055 | 1.07 ± 0.022 | 1.09 ± 0.093 | 0.472 ± 0.077 | 0.137 ± 0.011 | 0.035 ± 0.001 | 0.0337 ± 0.0025 |
| S68 BREAST | 0.907 ± 0.057 | 0.858 ± 0.22 | 1.04 ± 0.15 | 0.847 ± 0.44 | 1.14 ± 0.15 | 0.911 ± 0.1 | 0.56 ± 0.076 | 0.369 ± 0.083 | 1.17 ± 0.16 | 0.724 ± 0.12 | 0.602 ± 0.18 | 0.533 ± 0.095 | 0.445 ± 0.17 | 0.378 ± 0.059 | 0.357 ± 0.032 | 0.271 ± 0.054 |
| SAOS2 BONE | 0.8247 ± 0.0029 | 0.805 ± 0.068 | 0.856 ± 0.016 | 0.698 ± 0.11 | 0.968 ± 0.024 | 0.904 ± 0.063 | 0.685 ± 0.034 | 0.462 ± 0.054 | 1.05 ± 0.058 | 1 ± 0.029 | 0.999 ± 0.077 | 0.831 ± 0.069 | 0.675 ± 0.018 | 0.489 ± 0.047 | 0.285 ± 0.022 | 0.219 ± 0.047 |
| SCC003 HEADNECK | 0.782 ± 0.088 | 0.787 ± 0.087 | 0.792 ± 0.076 | 0.822 ± 0.12 | 0.975 ± 0.012 | 0.934 ± 0.039 | 0.56 ± 0.05 | 0.457 ± 0.016 | 1.06 ± 0.053 | 1.07 ± 0.035 | 1.04 ± 0.015 | 1.03 ± 0.044 | 0.913 ± 0.019 | 0.713 ± 0.059 | 0.588 ± 0.012 | 0.475 ± 0.066 |
| SCC36 HEADNECK | 0.763 ± 0.09 | 0.762 ± 0.064 | 0.726 ± 0.027 | 0.7173 ± 0.004 | 0.998 ± 0.081 | 0.907 ± 0.1 | 0.631 ± 0.011 | 0.499 ± 0.012 | 1.13 ± 0.041 | 0.988 ± 0.087 | 0.95 ± 0.15 | 0.886 ± 0.025 | 0.77 ± 0.089 | 0.586 ± 0.0076 | 0.436 ± 0.056 | 0.352 ± 0.07 |
| SCC47 HEADNECK | 0.907 ± 0.031 | 0.909 ± 0.046 | 0.917 ± 0.038 | 0.9 ± 0.019 | 0.843 ± 0.026 | 0.677 ± 0.047 | 0.466 ± 0.057 | 0.436 ± 0.035 | 1.1 ± 0.089 | 1.13 ± 0.13 | 1.13 ± 0.015 | 1.12 ± 0.058 | 1.12 ± 0.039 | 1.03 ± 0.062 | 0.937 ± 0.1 | 0.784 ± 0.1 |
| SCC90 HEADNECK | 0.933 ± 0.085 | 0.929 ± 0.061 | 0.94 ± 0.082 | 0.946 ± 0.018 | 1.06 ± 0.089 | 1.03 ± 0.085 | 0.885 ± 0.11 | 0.783 ± 0.044 | 1.05 ± 0.046 | 1.02 ± 0.031 | 1.01 ± 0.067 | 1.02 ± 0.059 | 0.813 ± 0.04 | 0.8 ± 0.13 | 1.17 ± 0.15 | 1.15 ± 0.033 |
